According to US7928141B2 (priority 2005, dated 2011):

Assays:
Format in all cases: in vivo, human
Conditions in all cases: using only lidocaine
[1] = Anesthetic trial in middle area operations: liposuction in the abdomen
Procedure: The above components were dissolved in a small amount (<1 mL) of distilled water and mixed homogeneously, and the mixture was then diluted to 10 mL to yield the L.S.Z. solution.
10 bottles were filled each with 500 mL of normal saline solution. To each bottle was added 10 ml 2% lidocaine solution (as described in Example 1), and 1 mL of the L.S.Z. solution. The bottles were shaken respectively to mix well, yielding L.S.Z. anesthetic solution having a long duration of action.
[…] While injecting the anesthetic solution, liposuction was conducted using a liposuction tube, finally removing 3500 mL aspirated fat solution in total. The operation lasted 1 hour. When injecting, 3 injection points, the subcutaneous depth of 1-2 cm, and radiation injection around the injection point were chosen to form 3 anesthetic zones with a radius of 15 cm. After injection, the onset time shortened from the original about 1 min (using only lidocaine) down to about 5 sec, and the duration of analgesia prolonged from the original 4 hours (using only lidocaine) to about 9 days.

[2] = Anesthetic trial in large area operations: liposuction in the lower limb (buttock, thigh, calf)
Procedure: The above components were dissolved in a small amount (<1 mL) of distilled water and mixed homogeneously, and the mix was then diluted to 60 mL to yield the L.S.Z. solution.
20 bottles were filled each with 500 mL normal saline solution. To each bottle was added 15 mL of 2% lidocaine solution (as described in Example 1) and 3 mL of the L.S.Z. solution as prepared in this Example. The bottles were shaken respectively to mix well, yielding L.S.Z. anesthetic solution having a long duration of action.
[…] While injecting the anesthetic solution, liposuction was conducted using a liposuction tube, finally removing 6 L aspirated fat solution in total. The operation lasted for about 3 hours. When injecting, 8 injection points, the subcutaneous depth of 1-2 cm, and the radiation injection method around the injection point were chosen to form 8 anesthetic zones with a radius of 20 cm. After injection, the onset time shortened from the original about 1 min (using only lidocaine) down to around 5 sec, and the duration of analgesia prolonged from the original 4 hours (using only lidocaine) to about 9 days.

[3] = Anesthetic trial in general liposuction operations
Procedure: The above components were dissolved in a small amount (<1 mL) of distilled water and mixed homogeneously, and the mix was then diluted to 150 mL to yield the L.S.Z. solution.
50 bottles were filled each with 500 mL normal saline solution. […] The bottles were shaken respectively to mix well, yielding L.S.Z. anesthetic solution having a long duration of action.
Then, a common syringe with a 25 cm long needle was used to inject subcutaneously the above anesthetic solution in 45 sites of a […], 1.70 m in height, and 90 kg in weight. While injecting the anesthetic solution, liposuction was conducted using a liposuction tube, finally removing 18 L aspirated fat solution in total. The operation lasted for about 9 hours and the weight of the subject was reduced by 15 kg in total.

CCN(CC)CC(=O)Nc1c(C)cccc1C [lidocaine]
duration of analgesia [1]: 4 h | onset time [1]: about 1 min | duration of analgesia [2]: 4 h | onset time [2]: about 1 min | duration of analgesia [3]: 4 h | onset time [3]: about 1 min
